From the supplement of paper PMC10307832

Experiments:
Assay in all cases: relative viability (nuclei count vs DMSO), 5 days (fraction); higher = more cells survive
ABC-1 = test system: ABC-1
Method in brief: (§1)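 A single step with final 0.05% Triton X-100, 1% formaldehyde and 1 ug/ml Hoechst fixed the cells and stained nuclei 5 days after treatment. Lung cancer cell lines in 1536-well plates had been treated by pin tool the day after seeding with one drug alone or a fixed anchor-drug dose plus five library-drug doses (not always all listed) in √10 steps, and nuclei were counted on 4× images. Relative viability is the ratio of nuclei in treated wells to nuclei in vehicle wells, taken as the median of duplicate plates.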

CAL-12T = test system: CAL-12T
Method in brief: as §1

ChaGo-K-1 = test system: ChaGo-K-1
Method in brief: as §1

HCC-366 = test system: HCC-366
Method in brief: as §1

HCC-78 = test system: HCC-78
Method in brief: as §1

LC-2-ad = test system: LC-2-ad
Method in brief: as §1

LOU-NH91 = test system: LOU-NH91
Method in brief: as §1

LU99A = test system: LU99A
Method in brief: as §1

NCI-H1651 = test system: NCI-H1651
Method in brief: as §1

NCI-H1734 = test system: NCI-H1734
Method in brief: as §1

NCI-H1755 = test system: NCI-H1755
Method in brief: as §1

NCI-H1944 = test system: NCI-H1944
Method in brief: as §1

NCI-H2087 = test system: NCI-H2087
Method in brief: as §1

NCI-H2170 = test system: NCI-H2170
Method in brief: as §1

NCI-H2228 = test system: NCI-H2228
Method in brief: as §1

NCI-H2405 = test system: NCI-H2405
Method in brief: as §1

NCI-H3122 = test system: NCI-H3122
Method in brief: as §1

NCI-H460 = test system: NCI-H460
Method in brief: as §1

PC-3 [JPC-3] = test system: PC-3 [JPC-3]
Method in brief: as §1

RERF-LC-KJ = test system: RERF-LC-KJ
Method in brief: as §1

UMC-11 = test system: UMC-11
Method in brief: as §1

With `C=C1C(=O)O[C@@H](CCCCCCCC)[C@@H]1C(=O)O` [C-75] + C[C@@H](Oc1cc(-c2cnn(C3CCNCC3)c2)cnc1N)c1c(Cl)ccc(F)c1Cl [Crizotinib] (partner 1 µM) the relative viability (ABC-1; first compound 0.08 µM) was 1.29, the relative viability (ABC-1; first compound 0.253 µM) was 1.81 and the relative viability (ABC-1; first compound 0.8 µM) was 0.998. For the same compound, the relative viability (ABC-1; first compound 2.53 µM) was 0.909, the relative viability (ABC-1; first compound 8 µM) was 0.882 and the relative viability (CAL-12T; first compound 0.08 µM) was 0.597. For the same compound, the relative viability (CAL-12T; first compound 0.253 µM) was 0.626, the relative viability (CAL-12T; first compound 0.8 µM) was 0.586 and the relative viability (CAL-12T; first compound 8 µM) was 0.849. It also gave a relative viability (ChaGo-K-1; first compound 0.08 µM) of 1.03, a relative viability (ChaGo-K-1; first compound 0.253 µM) of 0.983 and a relative viability (ChaGo-K-1; first compound 0.8 µM) of 1.12. The relative viability (ChaGo-K-1; first compound 2.53 µM) was 0.818, the relative viability (ChaGo-K-1; first compound 8 µM) was 1.08 and the relative viability (HCC-366; first compound 0.08 µM) was 0.508. It also gave a relative viability (HCC-366; first compound 0.253 µM) of 0.76, a relative viability (HCC-366; first compound 0.8 µM) of 0.5 and a relative viability (HCC-366; first compound 8 µM) of 0.509. It also gave a relative viability (HCC-78; first compound 0.08 µM) of 0.358, a relative viability (HCC-78; first compound 0.253 µM) of 0.338 and a relative viability (HCC-78; first compound 0.8 µM) of 0.36. It also gave a relative viability (HCC-78; first compound 2.53 µM) of 0.308, a relative viability (HCC-78; first compound 8 µM) of 0.4 and a relative viability (LC-2-ad; first compound 0.08 µM) of 0.467. The relative viability (LC-2-ad; first compound 0.253 µM) was 0.467, the relative viability (LC-2-ad; first compound 0.8 µM) was 0.369 and the relative viability (LC-2-ad; first compound 2.53 µM) was 0.446. For the same compound, the relative viability (LC-2-ad; first compound 8 µM) was 0.42, the relative viability (LOU-NH91; first compound 0.08 µM) was 0.743 and the relative viability (LOU-NH91; first compound 0.253 µM) was 0.696. The relative viability (LOU-NH91; first compound 0.8 µM) was 0.726, the relative viability (LOU-NH91; first compound 2.53 µM) was 0.682 and the relative viability (LOU-NH91; first compound 8 µM) was 0.742. The relative viability (LU99A; first compound 0.08 µM) was 0.538, the relative viability (LU99A; first compound 0.253 µM) was 0.616 and the relative viability (LU99A; first compound 0.8 µM) was 0.49. For the same compound, the relative viability (LU99A; first compound 2.53 µM) was 0.395, the relative viability (LU99A; first compound 8 µM) was 0.398 and the relative viability (NCI-H1651; first compound 0.08 µM) was 0.793. It also gave a relative viability (NCI-H1651; first compound 0.253 µM) of 0.882, a relative viability (NCI-H1651; first compound 0.8 µM) of 0.852 and a relative viability (NCI-H1651; first compound 2.53 µM) of 0.731. The relative viability (NCI-H1651; first compound 8 µM) was 0.889, the relative viability (NCI-H1734; first compound 0.08 µM) was 0.692 and the relative viability (NCI-H1734; first compound 0.253 µM) was 0.624. It also gave a relative viability (NCI-H1734; first compound 0.8 µM) of 0.618, a relative viability (NCI-H1734; first compound 2.53 µM) of 0.557 and a relative viability (NCI-H1734; first compound 8 µM) of 0.69. For the same compound, the relative viability (NCI-H1755; first compound 0.08 µM) was 0.87, the relative viability (NCI-H1755; first compound 0.253 µM) was 0.853 and the relative viability (NCI-H1755; first compound 0.8 µM) was 0.836. It also gave a relative viability (NCI-H1755; first compound 2.53 µM) of 0.541, a relative viability (NCI-H1755; first compound 8 µM) of 0.824 and a relative viability (NCI-H1944; first compound 0.08 µM) of 1.06. For the same compound, the relative viability (NCI-H1944; first compound 0.253 µM) was 0.998, the relative viability (NCI-H1944; first compound 0.8 µM) was 1.05 and the relative viability (NCI-H1944; first compound 8 µM) was 1.03. For the same compound, the relative viability (NCI-H2087; first compound 0.08 µM) was 0.942, the relative viability (NCI-H2087; first compound 0.253 µM) was 0.563 and the relative viability (NCI-H2087; first compound 0.8 µM) was 0.837. For the same compound, the relative viability (NCI-H2087; first compound 2.53 µM) was 0.608, the relative viability (NCI-H2087; first compound 8 µM) was 0.711 and the relative viability (NCI-H2170; first compound 0.08 µM) was 1.25. It also gave a relative viability (NCI-H2170; first compound 0.253 µM) of 1.28, a relative viability (NCI-H2170; first compound 0.8 µM) of 1.23 and a relative viability (NCI-H2170; first compound 2.53 µM) of 1.07. It also gave a relative viability (NCI-H2170; first compound 8 µM) of 1.24, a relative viability (NCI-H2228; first compound 0.08 µM) of 0.548 and a relative viability (NCI-H2228; first compound 0.253 µM) of 0.472. For the same compound, the relative viability (NCI-H2228; first compound 0.8 µM) was 0.412, the relative viability (NCI-H2228; first compound 2.53 µM) was 0.438 and the relative viability (NCI-H2228; first compound 8 µM) was 0.596. It also gave a relative viability (NCI-H2405; first compound 0.08 µM) of 0.825, a relative viability (NCI-H2405; first compound 0.253 µM) of 0.683 and a relative viability (NCI-H2405; first compound 0.8 µM) of 0.796. For the same compound, the relative viability (NCI-H2405; first compound 2.53 µM) was 0.785, the relative viability (NCI-H2405; first compound 8 µM) was 0.868 and the relative viability (NCI-H3122; first compound 0.08 µM) was 0.26. For the same compound, the relative viability (NCI-H3122; first compound 0.253 µM) was 0.254, the relative viability (NCI-H3122; first compound 0.8 µM) was 0.3 and the relative viability (NCI-H3122; first compound 8 µM) was 0.269. It also gave a relative viability (NCI-H460; first compound 0.08 µM) of 0.88, a relative viability (NCI-H460; first compound 0.253 µM) of 1.07 and a relative viability (NCI-H460; first compound 0.8 µM) of 0.696. For the same compound, the relative viability (NCI-H460; first compound 8 µM) was 0.696, the relative viability (PC-3 [JPC-3]; first compound 0.08 µM) was 1.01 and the relative viability (PC-3 [JPC-3]; first compound 0.253 µM) was 0.99. The relative viability (PC-3 [JPC-3]; first compound 0.8 µM) was 0.98, the relative viability (PC-3 [JPC-3]; first compound 2.53 µM) was 1.05 and the relative viability (PC-3 [JPC-3]; first compound 8 µM) was 1.14. It also gave a relative viability (RERF-LC-KJ; first compound 0.08 µM) of 0.881, a relative viability (RERF-LC-KJ; first compound 0.253 µM) of 0.846 and a relative viability (RERF-LC-KJ; first compound 0.8 µM) of 0.815. For the same compound, the relative viability (RERF-LC-KJ; first compound 2.53 µM) was 0.704, the relative viability (RERF-LC-KJ; first compound 8 µM) was 0.86 and the relative viability (UMC-11; first compound 0.08 µM) was 0.688. The relative viability (UMC-11; first compound 0.253 µM) was 0.625, the relative viability (UMC-11; first compound 0.8 µM) was 0.651 and the relative viability (UMC-11; first compound 2.53 µM) was 0.497. It also gave a relative viability (UMC-11; first compound 8 µM) of 0.461.
